Data on one compound can be found in US20020111282A1, “Antimicrobial compositions containing quaternary ammonium compounds, silanes and other disinfectants with furanones” (priority 2000, published 2002).

A short description of one data set: Solubility in water. Format: physicochemical.
A further data set deals with Alternaria alternata. Description: Zone of inhibition assay on TLC plates overlaid with agar containing fungal spores. Format: cell-based. The note with it: 10 μl spotted. The procedure:
(§1) Fungi used: Alternaria alternata, Aureobasidium pullulans, Cladosporium cladosporioides, Penicillium digitatum Method: Base formulas for A, B, C and D were prepared as described in Table 1 below. Subsequently, test solutions were prepared either by: (1) taking a furanone or a base formula alone; or (2) by adding small amounts of suitably solubilized furanone (i.e., normally using ethanol) to a base formula so as to deliver a series of furanone concentrations in the test solutions (i.e., 10 ug/ml, 5 ug/ml, 1 ug/ml, 500 ng/ml, 100 ng/ml and 10 ng/ml). […] The various test solutions are set out at the left-hand margin of Tables 2A to 2D and can be described as follows: Once the test solutions were prepared, 10 μl of each test solution was spotted onto TLC plates. The plates were overlaid with agar containing fungal spores. The TLC plates were incubated in a high humidity environment until growth could be observed visually. At inhibitory furanone concentrations, a zone of inhibition where no fungal growth was observed formed above the test solution spot. Lower furanone concentrations resulting in a zone of inhibition correspond to higher test solution efficacy.

The subject of a further data set is Penicillium digitatum. The description is as above. As to conditions: 10 μl spotted. Format: cell-based. How it is done:
as §1

Data set [1] has as its system Cladosporium cladosporioides. Described as above. Format: cell-based. As to conditions: 10 μl spotted. The procedure:
as §1

In the next data set the test system is Aureobasidium pullulans. Described as above. Format: cell-based. The note with it: 10 μl spotted. How it is done:
as §1

Where [2] appears, read: 10 ng/ml furanone in test solution.
Setting [3] is: 100 ng/ml furanone in test solution.
The mark [4] stands for this setting: 500 ng/ml furanone in test solution.
Setting [5] is: 5 μg/ml furanone in test solution.
Where [6] appears, read: 10 μg/ml furanone in test solution.
Setting [7] is: 1 μg/ml furanone in test solution.

As for `O=C1C=C(Br)/C(=C/Br)O1` [Furanone 30], the Solubility in water entry in “Solubility in water” was “sparingly soluble in water”. For the same compound, the “Zone of Inhibition with 10 ng/ml of Furanone (mm)” value (in the data set with Alternaria alternata (setting [2]); with Penicillium digitatum (setting [2]); in data set [1] (setting [2]); with Aureobasidium pullulans (setting [2])) was 0 mm in each case. The “Zone of Inhibition with 100 ng/ml of Furanone (mm)” value with Alternaria alternata (setting [3]) is listed as 2-3 mm; in the data set on Penicillium digitatum (setting [3]), 0 mm; in data set [1] (setting [3]), 9-10 mm; in the data set on Aureobasidium pullulans (setting [3]) it was 0 mm. Further, the “Zone of Inhibition with 500 ng/ml of Furanone (mm)” value is on record as 3-4 mm in the data set on Alternaria alternata (setting [4]), 10-19 mm in the data set with Penicillium digitatum (setting [4]), 20-21 mm in data set [1] (setting [4]) and 0 mm in the data set on Aureobasidium pullulans (setting [4]). The “Zone of Inhibition with 5 μg/ml of Furanone (mm)” value in the data set on Alternaria alternata (setting [5]) is recorded as 35-37 mm; in data set [1] (setting [5]), 40-45 mm; in the data set with Aureobasidium pullulans (setting [5]), 3-10 mm. Besides, the “Zone of Inhibition with 10 μg/ml of Furanone (mm)” value is reported as 40-42 mm in the data set with Alternaria alternata (setting [6]), 32-45 mm with Penicillium digitatum (setting [6]), 42-56 mm in data set [1] (setting [6]) and 15-17 mm in the data set on Aureobasidium pullulans (setting [6]). In addition, the “Zone of Inhibition with 1 μg/ml of Furanone (mm)” value in the data set on Penicillium digitatum (setting [7]) is recorded as 12-15 mm; in data set [1] (setting [7]), 20-30 mm; with Aureobasidium pullulans (setting [7]) it was 0 mm.
